Assay results reported in US20050239873A1 (priority 1999, published 2005).

Key:
[1] = Stability in plasma; format: in vitro ADME, dog; conditions: 37° C., 60 min; for stability: presence of NaF/EDTA
Protocol: (§1) For analysis of samples, two volumes of cold methanol-acetonitrile (50:50, v/v) were added to portions of plasma, culture medium, or cell extract. The preparations were mixed and then centrifuged to obtain clear supernatants, which were dried at room temperature by compressed air. The residues were dissolved in the mobile phase, and a portion was injected onto the HPLC column.
(§2) The HPLC equipment consisted of a Hewlett Packard 1050 ChemStation with a fluorescence detector (Agilent 100 series). […] The mobile phase was methanol:ammonium acetate buffer (87:13 v/v; 0.2 M; pH 5.8, adjusted with HCl). The flow rate was 1 ml/min. The column elute was monitored fluorometrically at an excitation wavelength of 232 nm and an emission wavelength of 418 nm. The amounts of test compounds present in samples were determined from the peak areas.
(§3) Samples of mouse, rat, dog, and human plasma were incubated at 37° C. with and without addition of NaF (2.5 mg/ml) and EDTA (1 mg/ml). To these preparations, 2-OMe antimycin A1, 2-OMe antimcyin A2, 2-OMe antimycin A3, or 2-OMe antimycin A5, dissolved in methanol, was added to final concentrations of 500 ng/ml. Portions of plasma, taken at selected times after addition of the 2-OMe antimycin analog, were extracted and analyzed.

[2] = Stability in plasma; format: in vitro ADME, rat; conditions: 37° C., 60 min, presence of NaF/EDTA
Protocol: as §1, §2, §3

[3] = tested on: plasma proteins; test: Binding to plasma proteins (ultrafiltration); format: in vitro ADME, rat; conditions: presence of NaF+EDTA, 1000 ng/ml
[4] = tested on: plasma proteins; test: Binding to plasma proteins (ultrafiltration); format: in vitro ADME, dog; conditions: presence of NaF+EDTA, 1000 ng/ml
Protocol: Solutions of 2-OMe antimycin A3 were diluted with plasma (dog or human) containing NaF+EDTA to final concentrations of 1.0 or 0.2 μg/ml. Controls were diluted with water to the same final concentrations. These preparations were incubated at 37° C. for 20 min, at which time portions were taken and placed in the sample reservoirs of Amicon Centrifree® ultrafiltration systems (Millipore Co., Bedford, Mass.). At 37° C., the filter systems were centrifuged until the reservoirs were dry. From each filtrate, portions were taken for analysis by HPLC. The amounts present were designated as “free drug” (F). The concentrations of the unfiltered solutions were also determined by triplicate analyses. This amount represented the “total drug” concentration (T). The percentage of 2-OMe antimycin A3 bound to plasma proteins was calculated by the following formula: % bound=((T−F)/T)×100
Similar experiments were performed for 2-OMe antimycin A3 in dog or rat plasma in the absence of NaF/EDTA.

[5] = tested on: RPMI-8226 myeloma cells; test: [3H]-thymidine incorporation assay; format: cell-based, human
Protocol: (§4) RPMI 8226 cells were grown in 96 well plates for 24 h prior to addition of 2-methoxy Antimycins. Antimycin stocks in DMSO were serially diluted in RPMI media. Cells were incubated for 48 h with compounds at final compound concentrations ranging from 10^−4 to 10^−8 M. MTT assays were performed in quadruplicate and percent growth inhibitions were calculated as (A570 (control cells)—A570 (treated cells))/A570 (control cells). The GI50 was extrapolated from semi-log plots of the dose response for each compound. […] After 72 h drug exposures, 1 μCi/ml [^3H]-thymidine was added to wells. Cells were incubated for an additional 24 h, and then transferred to GF/C filter plates (Packard) using a plate washer. Filters were dried, added to scintillant, and counted in a TopCount scintillation counter (Packard). Drug response was expressed as the percentage of vehicle-treated controls, and each value shown as the average of three determinations.

[6] = tested on: U266 myeloma cells; test: [3H]-thymidine incorporation assay; format: cell-based, human; conditions: 72 h drug exposure
Protocol: as §4

[7] = tested on: NCI-H929 myeloma cells; test: [3H]-thymidine incorporation assay; format: cell-based, human; conditions: 72 h drug exposure
Protocol: as §4

[8] = tested on: RPMI-8226 myeloma cell line; test: O2 consumption with a Clark electrode; format: cell-based, human
Protocol: (§5) Respiratory rates of both cell lines were maintained through repeated additions of 10 μM 2-OMeA, to a final concentration of 90 μM. […] Real-time glucose consumption and lactate production by TAMH cells grown on microcarrier beads was monitored using a novel microsequential injection-lab on valve (μSI-LOV) system (Schulz et al., Analyst 127:1293-1298, 2002). […] Since 2-OMeA has no effect on cellular respiration at these concentrations, 2-OMeA induced aerobic glycolysis in TAMH cells. The glycolytic response to 2-OMeA was proportional to cellular BCl-xL protein expression.

[9] = tested on: TAMH hepatocyte cell line; test: O2 consumption with a Clark electrode; format: cell-based, murine
Protocol: as §5

[10] = molecular target: Bcl-xLΔC20 (Homo sapiens, UniProt Q07817); test: Calcein leakage from large unilamellar vesicles (pore formation); format: biochemical
Protocol: In this example the ability of antimycin A to prevent pore formation by BCl-xL was tested. […] Recombinant human BCl-xL lacking the C-terminal 20-residue membrane anchor sequence, Bcl-xLΔC20, forms pores in large unilamellar vesicles. A reporter, calcein, can leak out of the vesicles through these pores.
Briefly, a dry film of lipid was resuspended in an aqueous solution containing 40 mM calcein (Molecular Probes, Eugene, Oreg.), 25 mM KCl and 10 mM HEPES (pH 7.0). After 5 freeze-thaw cycles, the lipidic solution was extruded through 2 Nucleopore filters, 0.1 μm pore diameter. […] The size of the vesicle suspension was measured by a Coulter N4 Plus-Sizer to confirm that the mean diameter of the vesicle sample was close to the expected size (100 nm). The osmolalities of all solutions were measured in a cryoscopic osmometer (Wescor Inc., Logan, Utah) and adjusted to 0.21 Osmol/kg by the addition of sodium chloride, as necessary.
Calcein leakage was determined by adding 2-4 μg of purified Bcl-xLΔC20 (5 μg/ml, 161 nM) to a solution of 100 mM NaCl, 10 mM HEPES (pH 5.0) containing the large unilamellar vesicles (50 μM final lipid concentration) described above. Changes in the fluorescence intensity were measured in an Aminco-SLM spectrofluorimeter. […] The 100% fluorescence level for leakage was obtained by detergent lysis (0.1% Triton X-100) of the vesicles containing entrapped calcein.

[11] = repeated additions of 10 μM to a final concentration of 90 μM

Chain of Bcl-xLΔC20 (Q07817 1-213 limits assumed, stated change not applied): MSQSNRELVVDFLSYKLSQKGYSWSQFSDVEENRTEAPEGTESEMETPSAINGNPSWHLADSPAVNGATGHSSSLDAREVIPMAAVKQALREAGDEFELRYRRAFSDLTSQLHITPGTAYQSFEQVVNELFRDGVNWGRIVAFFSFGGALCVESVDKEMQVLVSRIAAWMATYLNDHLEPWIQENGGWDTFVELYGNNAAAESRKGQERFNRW

With `CCCCCC[C@H]1C(=O)O[C@H](C)[C@H](NC(=O)c2cccc(NC=O)c2OC)C(=O)O[C@@H](C)[C@@H]1OC(=O)CC(C)C` [2-OMeA1, 2-methoxy antimycin A1] the added amount remaining ([1]; absence of NaF/EDTA, 500 ng/ml) was 61%, the stability [1] was “unstable” and the stability [2] was “substantially stable”. The “Protein binding, Rat” value [3] was >99.9% and the “Protein binding, Dog” value [4] was 99.8%.

For 2-methoxy antimycin A [2-OMeA], the IC50 ([5]; 72 h drug exposure) was 15 µg/mL, the “IC50 relative to antimycin A” value ([5]; RPMI-8226, U266 and NCI-H929) was 100 fold and the IC50 [6] was 5 µg/mL. The IC50 [7] was 10 µg/mL, the respiratory rate [8, 11] was “maintained” and the respiratory rate [9, 11] was “maintained”.

In the case of antimycin A, the “Bcl-xL pore-forming activity (calcein leakage)” value ([10]; 12 μM) is reported as “completely blocked”, the “50% growth inhibition (GI50)” value ([5]; 72 h drug exposure) is reported as 0.1 µg/mL and the “50% growth inhibition (GI50)” value [6] is reported as 0.05 µg/mL. The “50% growth inhibition (GI50)” value [7] was 0.2 µg/mL, the dampening of respiration ([8]; 10 μM) was > 90% and the dampening of respiration ([9]; 10 μM) was > 90%.

For `CCCC[C@H]1C(=O)OC(C)[C@H](NC(=O)c2cccc(NC=O)c2OC)C(=O)O[C@@H](C)C1OC(=O)CC(C)C` (stereo partly shown) [2-OMeA3, Antimycin A3 methyl ether], the stability [1] was “largely stable”, the “inhibition of Bcl-xL pore formation, liposome permeability assay” value [10] was “almost as well as antimycin A3” and the stability [2] was “largely stable”. For the same compound, the “Protein binding, Rat” value [3] was 99.8% and the “Protein binding, Dog” value [4] was 99.3%.
